Values after ≈ are worked out from the molar mass of the structure shown.
Experiments:
Kinase A and SpoOF = target: T1, Kinase A and SpoOF (Bacillus subtilis, UniProt P16497); assay: Autophosphorylation of Kinase A and Transphosphorylation of SPoOF Assay; type: biochemical; settings: inhibition of Kinase A autophosphorylation / SpoOF transphosphorylation, [32P]ATP, gel, phosphoimager
T1 sequence (P16497 1-606): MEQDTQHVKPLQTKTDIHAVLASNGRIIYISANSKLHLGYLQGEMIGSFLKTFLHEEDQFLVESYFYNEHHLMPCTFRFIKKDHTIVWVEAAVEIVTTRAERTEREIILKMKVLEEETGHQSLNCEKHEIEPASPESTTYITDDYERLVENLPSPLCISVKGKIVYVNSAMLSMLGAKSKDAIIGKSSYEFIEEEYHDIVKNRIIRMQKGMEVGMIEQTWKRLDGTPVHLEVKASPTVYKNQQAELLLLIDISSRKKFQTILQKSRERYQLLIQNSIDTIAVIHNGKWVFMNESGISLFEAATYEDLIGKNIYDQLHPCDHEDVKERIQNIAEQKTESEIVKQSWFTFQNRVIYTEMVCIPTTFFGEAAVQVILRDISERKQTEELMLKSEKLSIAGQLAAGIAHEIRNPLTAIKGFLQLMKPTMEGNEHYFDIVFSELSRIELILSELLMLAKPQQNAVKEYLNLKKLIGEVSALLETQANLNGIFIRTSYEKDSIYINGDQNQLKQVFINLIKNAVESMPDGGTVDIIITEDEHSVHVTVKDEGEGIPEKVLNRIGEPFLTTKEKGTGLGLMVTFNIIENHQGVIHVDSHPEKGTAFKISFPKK

A. niger 10578 = assay: MIC, microdilution broth method (NCCLS); type: cell-based; settings: cation supplemented Mueller Hinton broth, 35° C., 16-20 hours; unit assumed
Experimental: (§1) The in vitro antimicrobial spectrum of the compounds of the present invention were determined by the microdilution broth method following the test method from the National Committee for […] (NCCLS ). The method is described in the NCCLS Document M7-A2, Vol. 10, No.8 "Methods for Dilution Antimicrobial Susceptibility Test for Bacteria that Grow Aerobically--Second Edition".
(§2) In this method two fold serial dilutions of drug in cation supplemented Mueller Hinton broth are added to wells in microdilution trays. The test organisms are prepared by adjusting the turbidity of actively growing broth cultures so that the final concentration of test organism after it is added to the wells is approximately 5×10^4 colony forming units per well delivered by the Steers replicating device.
(§3) Following inoculation of the microdilution trays, the trays are incubated at 35° C. for 16-20 hours and then read. […] The amount of growth in the wells containing the test compound is compared with the amount of growth in the growth-control wells used in each tray.

C. albicans 10231 = assay: MIC, microdilution broth method (NCCLS); type: cell-based; settings: cation supplemented Mueller Hinton broth, 35° C., 16-20 hours; unit assumed
Experimental: as §1, §2, §3

C. tropicalis = assay: MIC, microdilution broth method (NCCLS); type: cell-based; settings: cation supplemented Mueller Hinton broth, 35° C., 16-20 hours; unit assumed
Experimental: as §1, §2, §3

E. coli oc2530 = assay: MIC, microdilution broth method (NCCLS); type: cell-based; settings: cation supplemented Mueller Hinton broth, 35° C., 16-20 hours; unit assumed
Experimental: as §1, §2, §3

E. coli oc2605 = assay: MIC, microdilution broth method (NCCLS); type: cell-based; settings: cation supplemented Mueller Hinton broth, 35° C., 16-20 hours; unit assumed
Experimental: as §1, §2, §3

E. faecalis ACTCC 29212 = assay: MIC, microdilution broth method (NCCLS); type: cell-based; settings: cation supplemented Mueller Hinton broth, 35° C., 16-20 hours; unit assumed
Experimental: as §1, §2, §3

E. faecalis oc3041 = assay: MIC, microdilution broth method (NCCLS); type: cell-based; settings: cation supplemented Mueller Hinton broth, 35° C., 16-20 hours; unit assumed
Experimental: as §1, §2, §3

E. faecium oc2993 = assay: MIC, microdilution broth method (NCCLS); type: cell-based; settings: cation supplemented Mueller Hinton broth, 35° C., 16-20 hours; unit assumed
Experimental: as §1, §2, §3

K. pneum. oc1943 = assay: MIC, microdilution broth method (NCCLS); type: cell-based; settings: cation supplemented Mueller Hinton broth, 35° C., 16-20 hours; unit assumed
Experimental: as §1, §2, §3

MRSA oc2089 = assay: MIC, microdilution broth method (NCCLS); type: cell-based; settings: cation supplemented Mueller Hinton broth, 35° C., 16-20 hours; unit assumed
Experimental: as §1, §2, §3

MRSA oc667 = assay: MIC, microdilution broth method (NCCLS); type: cell-based; settings: cation supplemented Mueller Hinton broth, 35° C., 16-20 hours; unit assumed
Experimental: as §1, §2, §3

Ps. aerug. oc161 = assay: MIC, microdilution broth method (NCCLS); type: cell-based; settings: cation supplemented Mueller Hinton broth, 35° C., 16-20 hours; unit assumed
Experimental: as §1, §2, §3

Ps. aerug. oc27853 = assay: MIC, microdilution broth method (NCCLS); type: cell-based; settings: cation supplemented Mueller Hinton broth, 35° C., 16-20 hours; unit assumed
Experimental: as §1, §2, §3

S. aureus ATCC 29213 = assay: MIC, microdilution broth method (NCCLS); type: cell-based; settings: cation supplemented Mueller Hinton broth, 35° C., 16-20 hours; unit assumed
Experimental: as §1, §2, §3

S. epi oc2603 = assay: MIC, microdilution broth method (NCCLS); type: cell-based; parameters: unit not given here; settings: cation supplemented Mueller Hinton broth, 35° C., 16-20 hours
Experimental: as §1, §2, §3

## COc1ccc(CC2(CCOc3ccc(CCN)cc3)C=CCCC2)cc1 (centres unmarked) [Compound 41]
Kinase A and SpoOF
  IC50: 82.5 mM
  IC min: 31.25 mM
A. niger 10578
  MIC A. niger 10578: 2 µg/mL (≈ 5.47 µM)
C. albicans 10231
  MIC C. albicans 10231: 8 µg/mL (≈ 21.9 µM)
C. tropicalis
  MIC C. tropicalis: 4 µg/mL (≈ 10.9 µM)
E. coli oc2530
  MIC E. coli oc2530: 4 µg/mL (≈ 10.9 µM)
E. coli oc2605
  MIC E. coli oc2605: > 64 µg/mL
E. faecalis ACTCC 29212
  MIC E. faecalis ACTCC 29212: 8 µg/mL (≈ 21.9 µM)
E. faecalis oc3041
  MIC E. faecalis oc3041: 8 µg/mL (≈ 21.9 µM)
E. faecium oc2993
  MIC E. faecium oc2993: 8 µg/mL (≈ 21.9 µM)
K. pneum. oc1943
  MIC K. pneum. oc1943: > 128 µg/mL
MRSA oc2089
  MIC MRSA oc2089: 8 µg/mL (≈ 21.9 µM)
MRSA oc667
  MIC MRSA oc667: 8 µg/mL (≈ 21.9 µM)
Ps. aerug. oc161
  MIC Ps. aerug. oc161: > 128 µg/mL
Ps. aerug. oc27853
  MIC Ps. aerug. oc27853: > 128 µg/mL
S. aureus ATCC 29213
  MIC S. aureus ATCC 29213: 8 µg/mL (≈ 21.9 µM)
S. epi oc2603
  MIC S. epi oc2603: 8

## NCCCc1cnc(NCCC2(Cc3ccccc3)C=CCCC2)nc1 (centres unmarked) [Compound 49]
Kinase A and SpoOF
  IC50: 162 mM
A. niger 10578
  MIC A. niger 10578: 16 µg/mL (≈ 45.6 µM)
C. albicans 10231
  MIC C. albicans 10231: 32 µg/mL (≈ 91.3 µM)
C. tropicalis
  MIC C. tropicalis: 16 µg/mL (≈ 45.6 µM)
E. coli oc2530
  MIC E. coli oc2530: 16 µg/mL (≈ 45.6 µM)
E. coli oc2605
  MIC E. coli oc2605: 128 µg/mL (≈ 365 µM)
E. faecalis ACTCC 29212
  MIC E. faecalis ACTCC 29212: 32 µg/mL (≈ 91.3 µM)
E. faecalis oc3041
  MIC E. faecalis oc3041: 32 µg/mL (≈ 91.3 µM)
E. faecium oc2993
  MIC E. faecium oc2993: 32 µg/mL (≈ 91.3 µM)
K. pneum. oc1943
  MIC K. pneum. oc1943: 128 µg/mL (≈ 365 µM)
MRSA oc2089
  MIC MRSA oc2089: 32 µg/mL (≈ 91.3 µM)
MRSA oc667
  MIC MRSA oc667: 32 µg/mL (≈ 91.3 µM)
Ps. aerug. oc161
  MIC Ps. aerug. oc161: 128 µg/mL (≈ 365 µM)
Ps. aerug. oc27853
  MIC Ps. aerug. oc27853: 128 µg/mL (≈ 365 µM)
S. aureus ATCC 29213
  MIC S. aureus ATCC 29213: 64 µg/mL (≈ 183 µM)
S. epi oc2603
  MIC S. epi oc2603: 16

## COc1ccc(CC2(CCOc3ccc(CCCNC(=N)N)cc3)C=CCCC2)cc1 (centres unmarked) [Compound 53]
Kinase A and SpoOF
  IC50: 113 mM
A. niger 10578
  MIC A. niger 10578: 8 µg/mL (≈ 19 µM)
C. albicans 10231
  MIC C. albicans 10231: 4 µg/mL (≈ 9.49 µM)
C. tropicalis
  MIC C. tropicalis: 2 µg/mL (≈ 4.74 µM)
E. coli oc2530
  MIC E. coli oc2530: 16 µg/mL (≈ 38 µM)
E. coli oc2605
  MIC E. coli oc2605: > 64 µg/mL
E. faecalis ACTCC 29212
  MIC E. faecalis ACTCC 29212: 4 µg/mL (≈ 9.49 µM)
E. faecalis oc3041
  MIC E. faecalis oc3041: 8 µg/mL (≈ 19 µM)
E. faecium oc2993
  MIC E. faecium oc2993: 8 µg/mL (≈ 19 µM)
K. pneum. oc1943
  MIC K. pneum. oc1943: > 128 µg/mL
MRSA oc2089
  MIC MRSA oc2089: 4 µg/mL (≈ 9.49 µM)
MRSA oc667
  MIC MRSA oc667: 8 µg/mL (≈ 19 µM)
Ps. aerug. oc161
  MIC Ps. aerug. oc161: > 128 µg/mL
Ps. aerug. oc27853
  MIC Ps. aerug. oc27853: > 128 µg/mL
S. aureus ATCC 29213
  MIC S. aureus ATCC 29213: 4 µg/mL (≈ 9.49 µM)
S. epi oc2603
  MIC S. epi oc2603: 8

## NCCc1ccc(OCCC2(Cc3cc(Cl)cc(Cl)c3)C=CCCC2)cc1 (centres unmarked) [Compound 59]
Kinase A and SpoOF
  IC50: 46.1 mM
A. niger 10578
  MIC A. niger 10578: 44 µg/mL (≈ 109 µM)
C. albicans 10231
  MIC C. albicans 10231: 8 µg/mL (≈ 19.8 µM)
C. tropicalis
  MIC C. tropicalis: 8 µg/mL (≈ 19.8 µM)
E. coli oc2530
  MIC E. coli oc2530: 16 µg/mL (≈ 39.6 µM)
E. coli oc2605
  MIC E. coli oc2605: ≥ 64 µg/mL
E. faecalis ACTCC 29212
  MIC E. faecalis ACTCC 29212: 8 µg/mL (≈ 19.8 µM)
E. faecalis oc3041
  MIC E. faecalis oc3041: 8 µg/mL (≈ 19.8 µM)
E. faecium oc2993
  MIC E. faecium oc2993: 8 µg/mL (≈ 19.8 µM)
K. pneum. oc1943
  MIC K. pneum. oc1943: > 128 µg/mL
MRSA oc2089
  MIC MRSA oc2089: 8 µg/mL (≈ 19.8 µM)
MRSA oc667
  MIC MRSA oc667: 8 µg/mL (≈ 19.8 µM)
Ps. aerug. oc161
  MIC Ps. aerug. oc161: > 128 µg/mL
Ps. aerug. oc27853
  MIC Ps. aerug. oc27853: > 128 µg/mL
S. aureus ATCC 29213
  MIC S. aureus ATCC 29213: 8 µg/mL (≈ 19.8 µM)
S. epi oc2603
  MIC S. epi oc2603: 8

## CC1COc2c(N3CCN(C)CC3)c(F)cc3c(=O)c(C(=O)O)cn1c23 (centres unmarked) [OFX, reference compound]
A. niger 10578
  MIC A. niger 10578: > 128 µg/mL
C. albicans 10231
  MIC C. albicans 10231: > 128 µg/mL
C. tropicalis
  MIC C. tropicalis: > 128 µg/mL
E. coli oc2530
  MIC E. coli oc2530: ≤ 0.12 µg/mL
E. coli oc2605
  MIC E. coli oc2605: ≤ 0.12 µg/mL
E. faecalis ACTCC 29212
  MIC E. faecalis ACTCC 29212: 2 µg/mL (≈ 5.53 µM)
E. faecalis oc3041
  MIC E. faecalis oc3041: 2 µg/mL (≈ 5.53 µM)
E. faecium oc2993
  MIC E. faecium oc2993: 4 µg/mL (≈ 11.1 µM)
K. pneum. oc1943
  MIC K. pneum. oc1943: 0.25 µg/mL (≈ 0.692 µM)
MRSA oc2089
  MIC MRSA oc2089: 4 µg/mL (≈ 11.1 µM)
MRSA oc667
  MIC MRSA oc667: 0.5 µg/mL (≈ 1.38 µM)
Ps. aerug. oc161
  MIC Ps. aerug. oc161: 2 µg/mL (≈ 5.53 µM)
Ps. aerug. oc27853
  MIC Ps. aerug. oc27853: 8 µg/mL (≈ 22.1 µM)
S. aureus ATCC 29213
  MIC S. aureus ATCC 29213: 0.5 µg/mL (≈ 1.38 µM)
S. epi oc2603
  MIC S. epi oc2603: 2

Source: patent publication US5753715A, “2-disubstituted cyclohexenyl and cyclohexyl antimicrobial agents” (Ortho Pharmaceutical Corporation, priority 1995, dated 1998)
